Data published in a compilation of properties of binary mixtures (doi:10.1021/je060123k).

Assay: xn = mol fraction of the nth substance listed
Conditions: 101 kPa

CO + CCCCCCCCn1cc[n+](C)c1.[Cl-]
x1 = 1
Conditions	speed of sound [m/s]	viscosity [mPa·s]
298.15 K	1103	0.543
328.15 K	1008	0.369

CCCCCCCCn1cc[n+](C)c1.[Cl-] + CCCO
Conditions	speed of sound, 298.15 K [m/s]	speed of sound, 313.15 K [m/s]	speed of sound, 328.15 K [m/s]	viscosity, 298.15 K [mPa·s]	viscosity, 313.15 K [mPa·s]	viscosity, 328.15 K [mPa·s]
x2 = 0	–	1624	–	–	4100	–
x2 = 0.1071	1659	1584	–	7200	1720	–
x2 = 0.2407	1593	1539	–	2056	650	–
x2 = 0.3036	1566	1517	–	910	334	–
x2 = 0.407	1531	–	1445	386	–	77.4
x2 = 0.4887	1504	1461	1421	179	84.1	42.7
x2 = 0.6209	1456	1414	–	50.81	28.81	–
x2 = 0.7248	–	1369	–	–	12.22	–
x2 = 0.8516	1342	1296	1250	6.34	4.4	3.189
x2 = 0.9024	–	1257	1211	–	3.23	2.352
x2 = 0.94	1271	1223	–	3.238	2.293	–
x2 = 0.9729	1238	1188	–	2.648	1.878	–

CCCCCCCCn1cc[n+](C)c1.[Cl-] + CCO
Conditions	speed of sound, 298.15 K [m/s]	speed of sound, 313.15 K [m/s]	speed of sound, 328.15 K [m/s]	viscosity, 298.15 K [mPa·s]	viscosity, 313.15 K [mPa·s]	viscosity, 328.15 K [mPa·s]
x2 = 0	1721	1624	1560	21000	4100	1091
x2 = 0.0449	–	1606	–	–	2717	–
x2 = 0.1305	–	1578	1527	–	1411	481
x2 = 0.2969	1579	1530	1487	1127	394	165
x2 = 0.4753	1518	1477	1438	186	88	45.2
x2 = 0.6858	1437	–	–	21.26	–	–
x2 = 0.8809	1304	1258	–	3.5	2.601	–
x2 = 0.917	1264	1218	1175	2.551	1.919	1.488
x2 = 0.955	1215	1169	1122	1.754	1.341	1.038
x2 = 0.9794	1179	–	–	1.396	–	–

CCO + CCCCCCCCn1cc[n+](C)c1.[Cl-]
x1 = 1
Conditions	speed of sound [m/s]	viscosity [mPa·s]
298.15 K	1143	1.085
313.15 K	1093	0.826
328.15 K	1043	0.641

CCCO + CCCCCCCCn1cc[n+](C)c1.[Cl-]
x1 = 1
Conditions	speed of sound [m/s]	viscosity [mPa·s]
298.15 K	1205	1.951
313.15 K	1155	1.383
328.15 K	1105	1.007

CCCCCCCCn1cc[n+](C)c1.[Cl-] + CO
Conditions	speed of sound, 298.15 K [m/s]	speed of sound, 313.15 K [m/s]	speed of sound, 328.15 K [m/s]	viscosity, 298.15 K [mPa·s]	viscosity, 313.15 K [mPa·s]	viscosity, 328.15 K [mPa·s]
x1 = 0.0197	–	1110	1070	–	0.594	0.497
x2 = 0	1721	1624	1560	21000	4100	1091
x2 = 0.0565	1683	1602	1548	10400	2450	760
x2 = 0.1686	1638	1578	1531	3500	1002	365
x2 = 0.2638	1608	1558	1514	1489	500	205
x2 = 0.3525	–	1536	1496	–	212	99
x2 = 0.4395	–	1518	–	–	106.7	–
x2 = 0.5589	–	–	1447	–	–	21.44
x2 = 0.7536	1447	1406	1365	8.43	5.82	4.39
x2 = 0.8231	1397	–	–	4.19	–	–
x2 = 0.8713	–	1304	1263	–	1.854	1.491
x2 = 0.8813	–	1292	1250	–	1.722	1.388
x2 = 0.9236	1274	1229	1186	1.416	1.133	0.93
x2 = 0.9436	1237	1192	1147	1.135	0.914	0.754
